{"source": "paper PMC2631652", "about": "(Current biology : CB, 2008)", "target": "T1, ClC-3 (long-ClC-3A) (Homo sapiens, UniProt P51790)", "T1 sequence (P51790 1-818)": "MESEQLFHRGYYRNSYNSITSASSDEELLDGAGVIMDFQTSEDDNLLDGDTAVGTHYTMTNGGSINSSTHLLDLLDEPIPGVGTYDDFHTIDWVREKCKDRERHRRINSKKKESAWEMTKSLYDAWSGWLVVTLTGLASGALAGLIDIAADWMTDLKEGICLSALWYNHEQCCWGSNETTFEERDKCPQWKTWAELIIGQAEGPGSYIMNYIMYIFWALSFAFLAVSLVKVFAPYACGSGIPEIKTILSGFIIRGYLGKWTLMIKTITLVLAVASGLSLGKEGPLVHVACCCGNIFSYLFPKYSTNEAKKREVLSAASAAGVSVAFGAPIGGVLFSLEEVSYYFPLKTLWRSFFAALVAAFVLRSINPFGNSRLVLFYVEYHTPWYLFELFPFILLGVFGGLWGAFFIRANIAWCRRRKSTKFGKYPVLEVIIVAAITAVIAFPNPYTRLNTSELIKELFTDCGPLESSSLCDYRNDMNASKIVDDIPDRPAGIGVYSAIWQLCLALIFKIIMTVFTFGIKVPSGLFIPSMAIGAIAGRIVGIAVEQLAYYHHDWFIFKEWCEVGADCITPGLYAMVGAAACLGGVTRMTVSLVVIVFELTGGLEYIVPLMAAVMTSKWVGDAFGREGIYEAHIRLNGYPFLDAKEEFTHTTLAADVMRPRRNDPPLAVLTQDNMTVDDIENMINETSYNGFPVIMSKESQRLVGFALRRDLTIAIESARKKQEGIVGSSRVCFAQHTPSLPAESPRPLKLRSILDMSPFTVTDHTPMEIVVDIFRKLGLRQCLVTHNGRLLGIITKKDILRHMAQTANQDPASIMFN", "experiment": "whole-cell patch clamp, inhibitor in pipette", "type": "cell-based"}
{"smiles": "O=P(O)(O)O[C@H]1[C@H](OP(=O)(O)O)[C@@H](OP(=O)(O)O)[C@@H](O)[C@@H](O)[C@@H]1OP(=O)(O)O", "note": "[Ins(3,4,5,6)P4]", "values": [{"measurement": "IC50", "result": 4.6, "unit": "µM"}]}
